Laboratory results as given in ChEMBL document CHEMBL3352489, “6-Hydroxyquinolinium salts differing in the length of alkyl side-chain: synthesis and antimicrobial activity” (Bioorg Med Chem Lett, 2014).

Key:
[1] = system: Trichosporon asahii; test: microbe, parasite or virus in culture; type: functional; conditions: Trichosporon asahii, 1188, 48 h
Description: Antifungal activity against Trichosporon asahii 1188 after 48 hrs by modified standard CSLI M27-A2 method

[2] = system: Klebsiella pneumoniae; test: microbe, parasite or virus in culture; type: functional; conditions: J 14368/08, 24 h
Description: Antibacterial activity against Klebsiella pneumoniae J 14368/08 after 24 hrs by microdilution broth method

[3] = system: Candida albicans; test: microbe, parasite or virus in culture; type: functional; conditions: ATCC 44859, 48 h
Description: Antifungal activity against Candida albicans ATCC 44859 after 48 hrs by modified standard CSLI M27-A2 method

[4] = system: Candida albicans; test: microbe, parasite or virus in culture; type: functional; conditions: ATCC 44859, 24 h
Description: Antifungal activity against Candida albicans ATCC 44859 after 24 hrs by modified standard CSLI M27-A2 method

[5] = system: Pichia kudriavzevii; test: Antifungal activity against Candida krusei E28 after 24 hrs by modified standard CSLI M27-A2 method; type: functional; conditions: E28, 24 h
[6] = system: Escherichia coli; test: microbe, parasite or virus in culture; type: functional; conditions: CCM 4517, 48 h
Description: Antibacterial activity against Escherichia coli CCM 4517 after 48 hrs by microdilution broth method

[7] = system: Lichtheimia corymbifera; test: Fungicidal activity against Absidia corymbifera 272 after 48 hrs by modified standard CSLI M27-A2 method; type: functional; conditions: Lichtheimia corymbifera, 272, 48 h
[8] = system: Trichophyton mentagrophytes; test: microbe, parasite or virus in culture; type: functional; conditions: Trichophyton mentagrophytes, 445, 72 h
Description: Antifungal activity against Trichophyton mentagrophytes 445 after 72 hrs by modified standard CSLI M27-A2 method

[9] = system: Nakaseomyces glabratus; test: Antifungal activity against Candida glabrata 20/I after 24 hrs by modified standard CSLI M27-A2 method; type: functional
[10] = system: Klebsiella pneumoniae; test: microbe, parasite or virus in culture; type: functional; conditions: J 14368/08, 48 h
Description: Antibacterial activity against Klebsiella pneumoniae J 14368/08 after 48 hrs by microdilution broth method

[11] = system: Trichosporon asahii; test: Fungicidal activity against Trichosporon asahii 1188 after 48 hrs by modified standard CSLI M27-A2 method; type: functional; conditions: Trichosporon asahii, 1188, 48 h
[12] = system: Candida tropicalis; test: microbe, parasite or virus in culture; type: functional; conditions: Candida tropicalis, 156, 24 h
Description: Antifungal activity against Candida tropicalis 156 after 24 hrs by modified standard CSLI M27-A2 method

[13] = system: Klebsiella pneumoniae; test: microbe, parasite or virus in culture; type: functional; conditions: D 11750/08, 24 h
Description: Antibacterial activity against Klebsiella pneumoniae D 11750/08 after 24 hrs by microdilution broth method

[14] = system: Staphylococcus aureus; test: microbe, parasite or virus in culture; type: functional; conditions: H 5996/08, 48 h
Description: Antibacterial activity against Staphylococcus aureus H 5996/08 after 48 hrs by microdilution broth method

[15] = system: Escherichia coli; test: microbe, parasite or virus in culture; type: functional; conditions: CCM 4517, 24 h
Description: Antibacterial activity against Escherichia coli CCM 4517 after 24 hrs by microdilution broth method

[16] = system: Staphylococcus aureus; test: Bactericidal activity against Staphylococcus aureus CCM 4516/08 after 48 hrs by microdilution broth method; type: functional; conditions: CCM 4516/08, 48 h, read-out: MBC>99.9
[17] = system: Staphylococcus epidermidis; test: Bactericidal activity against Staphylococcus epidermidis H 6966/08 after 48 hrs by microdilution broth method; type: functional; conditions: H 6966/08, 48 h, read-out: MBC>99.9
[18] = system: Enterococcus sp.; test: microbe, parasite or virus in culture; type: functional; conditions: J 14365/08, 24 h
Description: Antibacterial activity against Enterococcus sp. J 14365/08 after 24 hrs by microdilution broth method

[19] = Cytotoxicity against CHOK1 cells after 24 hrs by MTT assay; type: ADME, cell-based; conditions: Cricetulus griseus, CHO-K1, 24 h
[20] = system: Aspergillus fumigatus; test: microbe, parasite or virus in culture; type: functional; conditions: Aspergillus fumigatus, 231, 48 h
Description: Antifungal activity against Aspergillus fumigatus 231 after 48 hrs by modified standard CSLI M27-A2 method

[21] = system: Candida tropicalis; test: Fungicidal activity against Candida tropicalis 156 after 48 hrs by modified standard CSLI M27-A2 method; type: functional; conditions: Candida tropicalis, 156, 48 h
[22] = system: Pseudomonas aeruginosa; test: Bactericidal activity against Pseudomonas aeruginosa CCM 1961 after 120 hrs by microdilution broth method; type: functional; conditions: CCM 1961, 120 h, read-out: MBC>99.9
[23] = system: Staphylococcus aureus; test: Bactericidal activity against Staphylococcus aureus H 5996/08 after 48 hrs by microdilution broth method; type: functional; conditions: H 5996/08, 48 h, read-out: MBC>99.9
[24] = system: Staphylococcus epidermidis; test: microbe, parasite or virus in culture; type: functional; conditions: H 6966/08, 24 h
Description: Antibacterial activity against Staphylococcus epidermidis H 6966/08 after 24 hrs by microdilution broth method

[25] = system: Lichtheimia corymbifera; test: microbe, parasite or virus in culture; type: functional; conditions: Lichtheimia corymbifera, 272, 24 h
Description: Antifungal activity against Absidia corymbifera 272 after 24 hrs by modified standard CSLI M27-A2 method

[26] = system: Pseudomonas aeruginosa; test: microbe, parasite or virus in culture; type: functional; conditions: CCM 1961, 72 h
Description: Antibacterial activity against Pseudomonas aeruginosa CCM 1961 after 72 hrs by microdilution broth method

[27] = system: Enterococcus sp.; test: Bactericidal activity against Enterococcus sp. J 14365/08 after 48 hrs by microdilution broth method; type: functional; conditions: J 14365/08, 48 h, read-out: MBC>99.9
[28] = system: Trichophyton mentagrophytes; test: microbe, parasite or virus in culture; type: functional; conditions: Trichophyton mentagrophytes, 445, 120 h
Description: Antifungal activity against Trichophyton mentagrophytes 445 after 120 hrs by modified standard CSLI M27-A2 method

[29] = system: Aspergillus fumigatus; test: Fungicidal activity against Aspergillus fumigatus 231 after 48 hrs by modified standard CSLI M27-A2 method; type: functional; conditions: Aspergillus fumigatus, 231, 48 h
[30] = system: Pichia kudriavzevii; test: Antifungal activity against Candida krusei E28 after 48 hrs by modified standard CSLI M27-A2 method; type: functional; conditions: E28, 48 h
[31] = system: Trichosporon asahii; test: microbe, parasite or virus in culture; type: functional; conditions: Trichosporon asahii, 1188, 24 h
Description: Antifungal activity against Trichosporon asahii 1188 after 24 hrs by modified standard CSLI M27-A2 method

[32] = system: Staphylococcus epidermidis; test: microbe, parasite or virus in culture; type: functional; conditions: H 6966/08, 48 h
Description: Antibacterial activity against Staphylococcus epidermidis H 6966/08 after 48 hrs by microdilution broth method

[33] = system: Pseudomonas aeruginosa; test: microbe, parasite or virus in culture; type: functional; conditions: CCM 1961, 120 h
Description: Antibacterial activity against Pseudomonas aeruginosa CCM 1961 after 120 hrs by microdilution broth method

[34] = system: Lichtheimia corymbifera; test: microbe, parasite or virus in culture; type: functional; conditions: Lichtheimia corymbifera, 272, 48 h
Description: Antifungal activity against Absidia corymbifera 272 after 48 hrs by modified standard CSLI M27-A2 method

[35] = system: Trichophyton mentagrophytes; test: Fungicidal activity against Trichophyton mentagrophytes 445 after 120 hrs by modified standard CSLI M27-A2 method; type: functional; conditions: Trichophyton mentagrophytes, 445, 120 h
[36] = system: Nakaseomyces glabratus; test: Antifungal activity against Candida glabrata 20/I after 48 hrs by modified standard CSLI M27-A2 method; type: functional
[37] = system: Staphylococcus aureus; test: microbe, parasite or virus in culture; type: functional; conditions: CCM 4516/08, 48 h
Description: Antibacterial activity against Staphylococcus aureus CCM 4516/08 after 48 hrs by microdilution broth method

[38] = system: Staphylococcus aureus; test: microbe, parasite or virus in culture; type: functional; conditions: CCM 4516/08, 24 h
Description: Antibacterial activity against Staphylococcus aureus CCM 4516/08 after 24 hrs by microdilution broth method

[39] = system: Klebsiella pneumoniae; test: microbe, parasite or virus in culture; type: functional; conditions: D 11750/08, 48 h
Description: Antibacterial activity against Klebsiella pneumoniae D 11750/08 after 48 hrs by microdilution broth method

[40] = system: Aspergillus fumigatus; test: microbe, parasite or virus in culture; type: functional; conditions: Aspergillus fumigatus, 231, 24 h
Description: Antifungal activity against Aspergillus fumigatus 231 after 24 hrs by modified standard CSLI M27-A2 method

[41] = system: Candida albicans; test: Fungicidal activity against Candida albicans ATCC 44859 after 48 hrs by modified standard CSLI M27-A2 method; type: functional; conditions: ATCC 44859, 48 h
[42] = system: Candida tropicalis; test: microbe, parasite or virus in culture; type: functional; conditions: Candida tropicalis, 156, 48 h
Description: Antifungal activity against Candida tropicalis 156 after 48 hrs by modified standard CSLI M27-A2 method

[43] = system: Klebsiella pneumoniae; test: Bactericidal activity against Klebsiella pneumoniae D 11750/08 after 24 hrs by microdilution broth method; type: functional; conditions: D 11750/08, 24 h, read-out: MBC>99.9
[44] = system: Escherichia coli; test: Bactericidal activity against Escherichia coli CCM 4517 after 48 hrs by microdilution broth method; type: functional; conditions: CCM 4517, 48 h, read-out: MBC>99.9
[45] = system: Pichia kudriavzevii; test: Fungicidal activity against Candida krusei E28 after 48 hrs by modified standard CSLI M27-A2 method; type: functional; conditions: E28, 48 h
[46] = system: Staphylococcus aureus; test: microbe, parasite or virus in culture; type: functional; conditions: H 5996/08, 24 h
Description: Antibacterial activity against Staphylococcus aureus H 5996/08 after 24 hrs by microdilution broth method

[47] = system: Enterococcus sp.; test: microbe, parasite or virus in culture; type: functional; conditions: J 14365/08, 48 h
Description: Antibacterial activity against Enterococcus sp. J 14365/08 after 48 hrs by microdilution broth method

[48] = system: Klebsiella pneumoniae; test: Bactericidal activity against Klebsiella pneumoniae J 14368/08 after 48 hrs by microdilution broth method; type: functional; conditions: J 14368/08, 48 h, read-out: MBC>99.9
[49] = system: Nakaseomyces glabratus; test: Fungicidal activity against Candida glabrata 20/I after 48 hrs by modified standard CSLI M27-A2 method; type: functional
[50] = Retention time of the compound by gradient elution based HPLC method; type: physicochemical
[51] = Retention time of the compound by isocratic elution based HPLC method; type: physicochemical

CCCCCCCCCCCCCC[n+]1ccccc1
MIC [1]: 31.2 µM | MIC95 [2]: 7.81 µM | MIC [3]: 7.81 µM | MIC [4]: 7.81 µM | MIC [5]: 0.98 µM | MIC95 [6]: 7.81 µM | MFC [7]: 250 µM | MIC [8]: 15.6 µM | MIC [9]: 1.95 µM | MIC95 [10]: 7.81 µM | MFC [11]: 250 µM | MIC [12]: 1.95 µM | MIC95 [13]: 15.6 µM | MIC95 [14]: 3.91 µM | MIC95 [15]: 7.81 µM | MBC [16]: 3.91 µM | MBC [17]: 0.49 µM | MIC95 [18]: 1.95 µM | IC50 [19]: 25 µM | MIC [20]: 31.2 µM | MFC [21]: 250 µM | MBC [22]: 125 µM | MBC [23]: 3.91 µM | MIC95 [24]: 0.49 µM | MIC [25]: 125 µM | MIC95 [26]: 125 µM | MBC [27]: 15.6 µM | MIC [28]: 15.6 µM | MFC [29]: 250 µM | MIC [30]: 0.98 µM | MIC [31]: 31.2 µM | MIC95 [32]: 0.49 µM | MIC95 [33]: 125 µM | MIC [34]: 125 µM | MFC [35]: 31.2 µM | MIC [36]: 1.95 µM | MIC95 [37]: 0.98 µM | MIC95 [38]: 0.98 µM | MIC95 [39]: 15.6 µM | MIC [40]: 15.6 µM | MFC [41]: 125 µM | MIC [42]: 1.95 µM | MBC [43]: 15.6 µM | MBC [44]: 7.81 µM | MFC [45]: 250 µM | MIC95 [46]: 3.91 µM | MIC95 [47]: 1.95 µM | MBC [48]: 7.81 µM | MFC [49]: 250 µM

CCCCCCCCCC[n+]1cccc2cc(O)ccc21.[Br-]
Retention_time [50]: 8.64 min | Retention_time [51]: 0.65 min
